Read-outs that look alike come from different tables or passages of the source. Marks after values point to notes of the source that are not given here.
Tests used:
[1] = cited from earlier work
[2] = cited from earlier work; remark: listed apart in the source
[3] = 90 min after injection, 12 MBq i.v., anesthetized; cited from earlier work
[4] = parameters: method as in PMID 4743583; conditions: i.v., estimated from ^67Ga-citrate data, uniform distribution of radioactivity assumed; cited from earlier work
[5] = Radiation dose of i.v. ^68Ga-citrate estimated from ^67Ga-citrate data (literature); parameters: species or system human; conditions: converted from 0.052 rem/mCi assuming only gamma radiation
[6] = ref Tang 2003, Pauleit 2003 [22], [23]

Molecule: N[C@@H](Cc1cc(O)c(O)cc1[18F])C(=O)O [6-^18 F-Fluoro-L-Dopa]
- Human derived ED ([1]; ref Harvey 1985, Brown 1998 [20], [21]): 0.0199 mSv/MBq
- Animal derived ED ([2]; calculated with biological risk weight factors of ICRP 30, ref Harvey 1985, Brown 1998 [20], [21]): 0.0539^b mSv/MBq

Molecule: [11CH3]Nc1ccc(-c2nc3ccc(O)cc3s2)cc1 [^11C-6-OH-BTA-1]
- Human derived ED ([1]; ref Parsey 2005, Scheinin 2007 [17], [18]): 0.0045 mSv/MBq
- Animal derived ED ([2]; males only, ref Parsey 2005, Scheinin 2007 [17], [18]): 0.0065^a mSv/MBq

Molecule: C[N+](C)([11CH3])CCO [^11C-Choline]
- Human derived ED ([1]; ref Tolvanen 2010 [24]): 0.0044 mSv/MBq
- Animal derived ED ([2]; ref Tolvanen 2010 [24]): 0.0028 mSv/MBq

Molecule: N[C@@H](Cc1ccc(OCC[18F])cc1)C(=O)O [^18 F-FET, O-(2-[^18F]fluoroethyl)-L-tyrosine]
- Human derived ED [1, 6]: 0.0165 mSv/MBq
- Animal derived ED [2, 6]: 0.0186 mSv/MBq

Molecule: [68Ga+3].[Cl-].[Cl-].[Cl-] [^68Ga-chloride]
- SUV, blood [3]: 2.7 ± 0.3
- SUV, liver [3]: 5.9 ± 3.3
- SUV, lung [3]: 1.9 ± 0.8
- SUV, muscle [3]: 0.2 ± 0.03
- SUV, skin [3]: 0.5 ± 0.1

Molecule: O=C([O-])CC(O)(CC(=O)[O-])C(=O)[O-].[68Ga+3] [^68Ga-citrate]
- Estimated absorbed dose for total body [4]: 0.052 rads/mCi
- Estimated absorbed dose for total body, converted [5]: 0.014 mSv/MBq

Molecule: carbon-11-methoxyprogabidic acid [^11C-MPGA]
- Human derived ED ([1]; ref Santens 1998 [19]): 0.0053 mSv/MBq
- Animal derived ED ([2]; ref Santens 1998 [19]): 0.0048 mSv/MBq
